According to publication PMC3445516 (PLoS ONE, 2012):
Where two headings read alike, the source gives them in different places.

Columns and labels:
Experiment in all cases: Ambit kinase profiling, competition binding
ERK3 = molecular target: T1, ERK3 (Homo sapiens, UniProt Q16659)
T1 construct: purchased Ambit Biosciences (KINOMEscan)
Method: (§1) Also included in the kinase profile are four isoforms of PKC (δ, ε, η, θ) and eight isoforms of CAMKs (CAMKIα, δ, γ; CAMKIIα, β, δ, γ; CAMK4).
(§2) The global kinase profiling experiment was performed by Ambit Biosciences.

CAMKIδ = molecular target: T2, CAMKIδ (Homo sapiens, UniProt Q8IU85); details: for competition: CAMKIδ, 10 µM
T2 construct: purchased Ambit Biosciences (KINOMEscan)
Method: as §1, §2

MARK2 = molecular target: T3, MARK2 (Homo sapiens, UniProt Q7KZI7)
T3 construct: purchased Ambit Biosciences (KINOMEscan)
Method: as §1, §2

PKAC-beta = molecular target: T4, PKAC-beta (Homo sapiens, UniProt P22694)
T4 construct: purchased Ambit Biosciences (KINOMEscan)
Method: as §1, §2

EPHB3 = molecular target: T5, EPHB3 (Homo sapiens, UniProt P54753)
T5 construct: purchased Ambit Biosciences (KINOMEscan)
T5 sequence (P54753 34-998): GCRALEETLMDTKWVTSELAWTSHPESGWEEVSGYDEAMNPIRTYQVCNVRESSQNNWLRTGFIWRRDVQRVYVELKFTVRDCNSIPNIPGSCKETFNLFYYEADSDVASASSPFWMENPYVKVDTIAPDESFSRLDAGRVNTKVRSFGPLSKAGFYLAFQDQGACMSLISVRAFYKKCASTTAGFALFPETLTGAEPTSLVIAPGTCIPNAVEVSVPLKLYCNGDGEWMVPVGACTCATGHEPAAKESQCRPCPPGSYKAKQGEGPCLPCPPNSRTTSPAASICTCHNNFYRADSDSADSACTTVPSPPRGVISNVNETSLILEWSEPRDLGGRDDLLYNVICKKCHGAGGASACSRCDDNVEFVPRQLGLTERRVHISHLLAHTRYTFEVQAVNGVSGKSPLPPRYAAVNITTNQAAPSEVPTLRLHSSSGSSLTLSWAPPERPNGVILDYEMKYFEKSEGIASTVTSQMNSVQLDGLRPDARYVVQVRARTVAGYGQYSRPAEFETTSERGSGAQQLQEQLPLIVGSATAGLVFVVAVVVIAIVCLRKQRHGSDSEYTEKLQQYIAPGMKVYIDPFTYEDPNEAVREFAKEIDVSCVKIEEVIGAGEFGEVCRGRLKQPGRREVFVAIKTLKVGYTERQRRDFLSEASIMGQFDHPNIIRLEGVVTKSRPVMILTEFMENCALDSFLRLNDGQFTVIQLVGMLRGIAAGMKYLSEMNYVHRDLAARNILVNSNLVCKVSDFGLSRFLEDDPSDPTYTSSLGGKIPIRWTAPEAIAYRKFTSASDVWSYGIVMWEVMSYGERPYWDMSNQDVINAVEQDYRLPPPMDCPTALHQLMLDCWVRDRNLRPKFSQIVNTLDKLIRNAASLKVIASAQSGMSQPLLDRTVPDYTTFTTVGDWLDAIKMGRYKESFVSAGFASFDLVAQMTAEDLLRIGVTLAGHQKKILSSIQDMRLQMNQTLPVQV
Method: as §1, §2

ADCK3 = molecular target: T6, ADCK3 (Homo sapiens, UniProt Q8NI60)
T6 construct: purchased Ambit Biosciences (KINOMEscan)
Method: as §1, §2

[1] = molecular target: T7, RPS6KA6(Kin.Dom.2-C-terminal) (Homo sapiens, UniProt Q9UK32); details: for % Competition: 10 µM
T7 construct: RPS6KA6(Kin.Dom.2-C-terminal); purchased Ambit Biosciences (KINOMEscan)
T7 sequence (Q9UK32 401-745 limits assumed): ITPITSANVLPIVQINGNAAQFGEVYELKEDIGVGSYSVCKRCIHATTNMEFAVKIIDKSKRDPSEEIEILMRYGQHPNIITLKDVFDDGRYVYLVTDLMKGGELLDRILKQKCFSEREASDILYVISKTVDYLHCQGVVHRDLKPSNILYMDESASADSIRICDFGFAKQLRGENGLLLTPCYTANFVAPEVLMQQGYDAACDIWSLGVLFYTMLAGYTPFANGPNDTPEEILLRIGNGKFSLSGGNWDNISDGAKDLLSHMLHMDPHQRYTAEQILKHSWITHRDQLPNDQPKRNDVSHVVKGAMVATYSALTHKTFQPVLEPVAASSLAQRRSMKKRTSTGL
Method: as §1, §2

MRCKA = molecular target: T8, MRCKA (Homo sapiens, UniProt Q5VT25)
T8 construct: purchased Ambit Biosciences (KINOMEscan)
Method: as §1, §2

p38-delta = molecular target: T9, p38-delta (Homo sapiens, UniProt O15264)
T9 construct: purchased Ambit Biosciences (KINOMEscan)
T9 sequence (O15264 1-365): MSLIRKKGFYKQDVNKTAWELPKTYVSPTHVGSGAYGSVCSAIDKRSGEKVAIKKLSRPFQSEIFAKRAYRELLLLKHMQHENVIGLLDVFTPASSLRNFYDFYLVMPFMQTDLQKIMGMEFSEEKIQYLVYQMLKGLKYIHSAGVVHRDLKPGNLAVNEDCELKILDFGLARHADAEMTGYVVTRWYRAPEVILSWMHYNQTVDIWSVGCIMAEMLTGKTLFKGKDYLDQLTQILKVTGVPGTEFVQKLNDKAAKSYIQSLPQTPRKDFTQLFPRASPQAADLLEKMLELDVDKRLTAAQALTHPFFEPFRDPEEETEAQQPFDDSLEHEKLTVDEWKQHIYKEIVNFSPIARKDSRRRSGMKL
Method: as §1, §2

JNK3 = molecular target: T10, JNK3 (Homo sapiens, UniProt P53779); details: for % Competition: 10 µM
T10 construct: purchased Ambit Biosciences (KINOMEscan)
Method: as §1, §2

CAMKIIβ = molecular target: T11, CAMKIIβ (Homo sapiens, UniProt Q13554); details: for competition: CAMKIIβ, 10 µM
T11 construct: purchased Ambit Biosciences (KINOMEscan)
Method: as §1, §2

PKC η = molecular target: T12, PKC η (Homo sapiens, UniProt P24723); details: for competition: PKC η, 10 µM
T12 construct: purchased Ambit Biosciences (KINOMEscan)
Method: as §1, §2

CLK2 = molecular target: T13, CLK2 (Homo sapiens, UniProt P49760)
T13 construct: purchased Ambit Biosciences (KINOMEscan)
Method: as §1, §2

EGFR(S752-I759del) = molecular target: T14, EGFR(S752-I759del) (Homo sapiens, UniProt P00533, DEL752-759); details: for % Competition: 10 µM
T14 construct: purchased Ambit Biosciences (KINOMEscan)
Method: as §1, §2

T3 sequence (Q7KZI7 whole entry): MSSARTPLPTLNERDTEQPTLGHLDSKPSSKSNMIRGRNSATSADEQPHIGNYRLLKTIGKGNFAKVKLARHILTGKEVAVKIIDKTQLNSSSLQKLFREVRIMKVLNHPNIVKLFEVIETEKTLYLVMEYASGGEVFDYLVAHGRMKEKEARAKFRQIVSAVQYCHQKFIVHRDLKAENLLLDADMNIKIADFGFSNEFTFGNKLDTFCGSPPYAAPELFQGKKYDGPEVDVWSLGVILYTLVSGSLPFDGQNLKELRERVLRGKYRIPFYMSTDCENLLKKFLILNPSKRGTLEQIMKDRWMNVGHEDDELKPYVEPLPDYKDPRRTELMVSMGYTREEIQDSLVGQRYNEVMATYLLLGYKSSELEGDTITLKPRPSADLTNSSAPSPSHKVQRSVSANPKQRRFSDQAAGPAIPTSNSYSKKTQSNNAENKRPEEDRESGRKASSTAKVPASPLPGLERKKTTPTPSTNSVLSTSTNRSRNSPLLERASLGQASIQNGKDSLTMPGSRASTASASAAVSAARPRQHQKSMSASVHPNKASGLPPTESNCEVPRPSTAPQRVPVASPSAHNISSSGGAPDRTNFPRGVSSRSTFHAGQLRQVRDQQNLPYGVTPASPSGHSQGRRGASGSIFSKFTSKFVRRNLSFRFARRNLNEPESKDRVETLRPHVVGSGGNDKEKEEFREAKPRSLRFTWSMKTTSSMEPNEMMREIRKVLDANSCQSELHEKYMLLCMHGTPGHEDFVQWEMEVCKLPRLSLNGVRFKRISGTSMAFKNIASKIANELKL
T1 sequence (Q16659 whole entry): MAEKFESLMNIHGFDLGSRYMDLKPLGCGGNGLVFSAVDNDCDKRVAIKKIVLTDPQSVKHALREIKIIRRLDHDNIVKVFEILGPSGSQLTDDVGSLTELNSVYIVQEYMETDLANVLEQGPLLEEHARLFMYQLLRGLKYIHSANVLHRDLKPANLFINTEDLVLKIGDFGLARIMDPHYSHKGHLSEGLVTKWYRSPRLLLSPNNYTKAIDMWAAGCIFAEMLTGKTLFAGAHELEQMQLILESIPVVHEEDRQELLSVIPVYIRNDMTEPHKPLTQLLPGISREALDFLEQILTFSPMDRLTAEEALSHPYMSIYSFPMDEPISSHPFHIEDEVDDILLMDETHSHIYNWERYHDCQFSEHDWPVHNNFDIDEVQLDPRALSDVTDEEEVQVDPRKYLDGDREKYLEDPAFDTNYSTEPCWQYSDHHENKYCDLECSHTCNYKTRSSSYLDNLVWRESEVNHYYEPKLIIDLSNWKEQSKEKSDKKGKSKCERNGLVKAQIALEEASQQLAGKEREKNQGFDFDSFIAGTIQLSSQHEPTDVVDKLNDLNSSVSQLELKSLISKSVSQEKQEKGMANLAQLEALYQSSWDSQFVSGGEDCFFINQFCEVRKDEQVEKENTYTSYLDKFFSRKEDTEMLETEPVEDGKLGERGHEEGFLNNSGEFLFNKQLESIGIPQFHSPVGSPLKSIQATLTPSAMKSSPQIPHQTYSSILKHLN
T12 sequence (P24723 whole entry): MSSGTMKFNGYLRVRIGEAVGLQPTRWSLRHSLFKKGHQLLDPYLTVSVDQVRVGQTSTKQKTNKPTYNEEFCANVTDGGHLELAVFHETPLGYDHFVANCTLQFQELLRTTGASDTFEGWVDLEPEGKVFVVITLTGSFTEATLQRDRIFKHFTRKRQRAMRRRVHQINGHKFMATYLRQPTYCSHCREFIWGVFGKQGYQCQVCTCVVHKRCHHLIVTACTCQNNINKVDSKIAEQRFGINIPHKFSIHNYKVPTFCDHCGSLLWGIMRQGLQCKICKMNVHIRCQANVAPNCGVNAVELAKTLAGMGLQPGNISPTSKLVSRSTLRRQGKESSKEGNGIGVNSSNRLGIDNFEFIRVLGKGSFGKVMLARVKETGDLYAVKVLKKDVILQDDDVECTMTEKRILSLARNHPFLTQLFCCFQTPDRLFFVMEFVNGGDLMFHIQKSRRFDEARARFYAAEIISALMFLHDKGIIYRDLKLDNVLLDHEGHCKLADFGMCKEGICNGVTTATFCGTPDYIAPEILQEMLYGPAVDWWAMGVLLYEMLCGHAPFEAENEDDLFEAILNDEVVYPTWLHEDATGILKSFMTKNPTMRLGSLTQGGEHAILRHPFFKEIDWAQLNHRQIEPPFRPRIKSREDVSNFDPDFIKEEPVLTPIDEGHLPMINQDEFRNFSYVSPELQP
T11 sequence (Q13554 whole entry): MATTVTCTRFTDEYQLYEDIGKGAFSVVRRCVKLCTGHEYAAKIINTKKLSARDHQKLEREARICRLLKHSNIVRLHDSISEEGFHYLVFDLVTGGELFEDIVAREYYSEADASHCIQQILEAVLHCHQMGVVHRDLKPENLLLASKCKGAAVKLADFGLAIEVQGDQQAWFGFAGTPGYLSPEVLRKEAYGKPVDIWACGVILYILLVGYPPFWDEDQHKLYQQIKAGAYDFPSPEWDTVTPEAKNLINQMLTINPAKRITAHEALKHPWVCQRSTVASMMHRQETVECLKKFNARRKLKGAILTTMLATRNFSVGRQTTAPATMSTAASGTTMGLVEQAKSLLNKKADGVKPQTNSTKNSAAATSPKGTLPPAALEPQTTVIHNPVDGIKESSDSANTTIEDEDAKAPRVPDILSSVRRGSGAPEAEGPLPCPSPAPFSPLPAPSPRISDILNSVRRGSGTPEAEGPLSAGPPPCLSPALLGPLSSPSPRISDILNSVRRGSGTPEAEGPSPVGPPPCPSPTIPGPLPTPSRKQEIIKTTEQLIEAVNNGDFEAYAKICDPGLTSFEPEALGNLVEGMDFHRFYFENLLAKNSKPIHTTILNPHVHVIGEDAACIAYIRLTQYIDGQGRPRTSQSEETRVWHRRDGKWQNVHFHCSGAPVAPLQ
T6 sequence (Q8NI60 163-647): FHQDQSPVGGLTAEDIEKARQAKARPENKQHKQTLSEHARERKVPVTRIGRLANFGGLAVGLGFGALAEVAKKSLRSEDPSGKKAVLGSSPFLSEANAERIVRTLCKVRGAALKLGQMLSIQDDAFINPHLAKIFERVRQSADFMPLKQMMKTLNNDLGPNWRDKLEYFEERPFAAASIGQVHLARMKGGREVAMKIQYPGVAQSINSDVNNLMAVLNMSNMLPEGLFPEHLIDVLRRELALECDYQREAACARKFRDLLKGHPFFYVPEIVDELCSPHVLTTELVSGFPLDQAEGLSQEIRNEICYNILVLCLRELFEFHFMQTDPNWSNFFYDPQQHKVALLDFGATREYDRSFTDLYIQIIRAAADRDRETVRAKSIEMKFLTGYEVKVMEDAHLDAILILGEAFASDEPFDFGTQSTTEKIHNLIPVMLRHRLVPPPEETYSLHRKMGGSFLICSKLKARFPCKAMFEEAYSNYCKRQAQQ
T8 sequence (Q5VT25 whole entry): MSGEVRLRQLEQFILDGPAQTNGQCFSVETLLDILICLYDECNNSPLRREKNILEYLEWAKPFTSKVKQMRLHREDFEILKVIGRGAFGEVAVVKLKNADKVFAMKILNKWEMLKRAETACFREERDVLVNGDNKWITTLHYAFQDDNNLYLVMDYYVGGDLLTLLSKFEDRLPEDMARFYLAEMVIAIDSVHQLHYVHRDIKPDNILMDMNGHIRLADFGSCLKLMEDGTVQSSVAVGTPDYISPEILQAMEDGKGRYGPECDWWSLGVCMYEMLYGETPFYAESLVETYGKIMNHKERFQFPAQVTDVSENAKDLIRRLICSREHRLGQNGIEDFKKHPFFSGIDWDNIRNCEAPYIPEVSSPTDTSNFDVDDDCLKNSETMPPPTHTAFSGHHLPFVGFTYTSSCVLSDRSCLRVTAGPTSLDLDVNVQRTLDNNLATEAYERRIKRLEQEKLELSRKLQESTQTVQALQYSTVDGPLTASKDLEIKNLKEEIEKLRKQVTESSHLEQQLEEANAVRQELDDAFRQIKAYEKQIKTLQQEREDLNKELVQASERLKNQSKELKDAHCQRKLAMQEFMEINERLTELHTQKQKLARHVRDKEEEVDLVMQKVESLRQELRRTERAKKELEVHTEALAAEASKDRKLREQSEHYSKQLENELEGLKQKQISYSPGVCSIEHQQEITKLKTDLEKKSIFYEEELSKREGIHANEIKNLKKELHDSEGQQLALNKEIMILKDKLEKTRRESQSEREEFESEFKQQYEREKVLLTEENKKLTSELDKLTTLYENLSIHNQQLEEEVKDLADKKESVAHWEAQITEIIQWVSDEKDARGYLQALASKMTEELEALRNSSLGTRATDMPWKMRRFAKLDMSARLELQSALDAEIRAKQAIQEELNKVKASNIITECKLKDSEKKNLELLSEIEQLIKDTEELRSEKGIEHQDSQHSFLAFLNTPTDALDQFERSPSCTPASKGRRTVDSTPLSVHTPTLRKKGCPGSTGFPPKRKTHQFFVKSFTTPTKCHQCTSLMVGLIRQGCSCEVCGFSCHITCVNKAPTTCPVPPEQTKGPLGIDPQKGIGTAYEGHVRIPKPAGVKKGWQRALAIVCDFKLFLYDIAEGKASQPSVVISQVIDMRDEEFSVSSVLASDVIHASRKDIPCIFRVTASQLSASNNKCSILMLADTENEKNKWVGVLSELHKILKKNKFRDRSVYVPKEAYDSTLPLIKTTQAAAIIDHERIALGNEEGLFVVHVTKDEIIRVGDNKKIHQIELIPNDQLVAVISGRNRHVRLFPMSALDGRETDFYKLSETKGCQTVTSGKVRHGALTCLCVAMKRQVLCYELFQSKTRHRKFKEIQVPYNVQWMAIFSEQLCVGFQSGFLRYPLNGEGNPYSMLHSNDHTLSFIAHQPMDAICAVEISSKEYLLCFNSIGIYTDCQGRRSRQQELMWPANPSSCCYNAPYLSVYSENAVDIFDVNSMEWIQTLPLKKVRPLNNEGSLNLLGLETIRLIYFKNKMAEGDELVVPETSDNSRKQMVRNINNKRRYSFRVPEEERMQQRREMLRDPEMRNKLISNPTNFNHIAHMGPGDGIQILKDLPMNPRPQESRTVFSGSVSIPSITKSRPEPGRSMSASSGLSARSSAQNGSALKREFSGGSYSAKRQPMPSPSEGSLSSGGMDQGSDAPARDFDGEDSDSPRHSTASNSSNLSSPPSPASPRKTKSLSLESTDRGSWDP

## Fc1ccc(-c2c(-c3ccncc3)[nH]c3nccnc23)cc1 [Compound 122]
ERK3; ERK3, 10 µM, read-out: % Competition
  inhibition at 10 µM: 98%
CAMKIδ
  competition: < 50%
MARK2; MARK2, 10 µM, read-out: % Competition
  inhibition at 10 µM: 77%
PKAC-beta; PKAC-beta, 10 µM, read-out: % Competition
  inhibition at 10 µM: 67%
EPHB3; EPHB3, 10 µM, read-out: % Competition
  inhibition at 10 µM: 82%
ADCK3; ADCK3, 10 µM, read-out: % Competition
  inhibition at 10 µM: 83%
[1]
  % Competition: 98%
MRCKA; MRCKA, 10 µM, read-out: % Competition
  inhibition at 10 µM: 99%
p38-delta; 10 µM, read-out: % Competition
  inhibition at 10 µM: 82%
JNK3
  % Competition: 88%
CAMKIIβ
  competition: < 50%
PKC η
  competition: < 50%
CLK2; CLK2, 10 µM, read-out: % Competition
  inhibition at 10 µM: 97%
EGFR(S752-I759del)
  % Competition: 98%

## CC(O)CNc1cc(-c2[nH]c3cccnc3c2-c2ccc(F)cc2)ccn1 (stereo not drawn) [Compound 140]
ERK3; read-out: % Competition
  inhibition at 10 µM: < 50%
CAMKIδ
  competition: < 50%
MARK2; read-out: % Competition
  inhibition at 10 µM: < 50%
PKAC-beta; read-out: % Competition
  inhibition at 10 µM: < 50%
EPHB3; read-out: % Competition
  inhibition at 10 µM: < 50%
ADCK3; read-out: % Competition
  inhibition at 10 µM: 90%
[1]
  % Competition: 96%
MRCKA; read-out: % Competition
  inhibition at 10 µM: < 50%
p38-delta; 10 µM
  % Competition: <50%
JNK3
  % Competition: 83%
CAMKIIβ
  competition: < 50%
PKC η
  competition: < 50%
CLK2; read-out: % Competition
  inhibition at 10 µM: < 50%
EGFR(S752-I759del)
  % Competition: 91%

## Fc1ccc(-c2c(-c3ccncc3)[nH]c3nccnc23)cc1 [RO1155697-000-005]
ERK3; ERK3, compound concentration 10 uM, read-out: Percent Competition
  inhibition at 10 µM: 98%
CAMKIδ; CAMK1D, compound concentration 10 uM, read-out: Percent Competition
  inhibition at 10 µM: < 50%
MARK2; MARK2, compound concentration 10 uM, read-out: Percent Competition
  inhibition at 10 µM: 77%
PKAC-beta; PKAC-beta, compound concentration 10 uM, read-out: Percent Competition
  inhibition at 10 µM: 67%
EPHB3; EPHB3, compound concentration 10 uM, read-out: Percent Competition
  inhibition at 10 µM: 82%
ADCK3; ADCK3, compound concentration 10 uM, read-out: Percent Competition
  inhibition at 10 µM: 83%
[1]; compound concentration 10 uM
  Percent Competition: 98%
MRCKA; MRCKA, compound concentration 10 uM, read-out: Percent Competition
  inhibition at 10 µM: 99%
p38-delta; compound concentration 10 uM, read-out: Percent Competition
  inhibition at 10 µM: 82%
JNK3; compound concentration 10 uM
  Percent Competition: 88%
CAMKIIβ; CAMK2B, compound concentration 10 uM, read-out: Percent Competition
  inhibition at 10 µM: < 50%
PKC η; PRKCH, compound concentration 10 uM, read-out: Percent Competition
  inhibition at 10 µM: < 50%
CLK2; CLK2, compound concentration 10 uM, read-out: Percent Competition
  inhibition at 10 µM: 97%
EGFR(S752-I759del); compound concentration 10 uM
  Percent Competition: 98%
